Results from US20120101099A1, “HISTONE DEACETYLASE INHIBITORS” (ANTHEM BIOSCIENCES PRIVATE LIMITED, priority 2009, published 2012).
Structures can show the parent of a compound that is named as a salt. Where two headings read alike, the source gives them in different places.

Columns and labels:
hERG = target: T1, hERG (Homo sapiens, UniProt Q12809); experiment: hERG competitive binding assay (3H-Astemizole); conditions: hERG-CHO membrane, 1 nM 3H-Astemizole
T1 construct: expressed in transfected cells; host or cells: CHO cells (membrane preparation)
Experimental: The study was carried out to find our cardio safety of the test compounds. Brief procedure: The hERG competitive binding assay performed at a ligand concentration of 1 nM. The test compounds were dissolved in desired volume of 100% DMSO (stock conc. 50 mM). […] The test compound and membrane was pre-incubated for 10 Min at 30° C. 10 μL of ^3H-Astemizole was then added (final concentration of 1 nM), mixed well and incubated additionally for 90 min at 30° C. with mild shaking. At the end of reaction, binding was terminated by rapid filtration onto GF/C glass fiber filter mats, presoaked in 0.3% polyethyleneimine, followed by rapid washing 10 times with ice-cold wash buffer. Captured radiolabel was detected using a liquid scintillation counter. The percent inhibition of the compounds was calculated compared to the vehicle control.

cleaved PARP = experiment: PARP cleavage in HeLa cells (Western Blot); assay type: cell-based; parameters: key: represented by the symbol ‘+’ which indicates the relative extent of modulation; ++: represented by the symbol ‘+’ which indicates the relative extent of modulation; +++: represented by the symbol ‘+’ which indicates the relative extent of modulation; ++++: represented by the symbol ‘+’ which indicates the relative extent of modulation; conditions: 24 hrs, 0.03-3.0 μM
Experimental: HeLa Cells were seeded (0.3×10^6 Cells/well) into a 6 well plate and after 24 hrs compounds were added in 5 different concentrations (0.03, 0.1, 0.3, 1.0, 3.0 μM). After 24 hrs cells were lysed and cellular extract was used for assessing apoptotic activity by detection of cleaved PARP by Western Blot using monoclonal Anti-poly(ADP-Ribose) polymerase antibody, Clone C-2-10(Sigma).

acetyl-Histone H3 = experiment: Histone hyperacetylation in Hela cells (Western Blot); assay type: cell-based; parameters: key: represented by the symbol ‘+’ which indicates the relative extent of modulation; ++: represented by the symbol ‘+’ which indicates the relative extent of modulation; +++: represented by the symbol ‘+’ which indicates the relative extent of modulation; ++++: represented by the symbol ‘+’ which indicates the relative extent of modulation; conditions: 24 hrs, 0.03-3.0 μM
Experimental: (§1) HeLa Cells were seeded at a density of 0.4×10^6 Cells/well into 6 well plates and incubated for 24 h The compounds were tested at 5 different concentrations (0.03, 0.1, 0.3, 1.0, 3.0 μM) with corresponding control. After 24 hrs cells were lysed and histone proteins were extracted as per established protocols and the extract was used for measuring H3 and H4 hyperacetylation by Western Blot using Anti-acetyl-Histone H3 and Anti-acetyl-Histone H4 (Millipore, USA) antibodies.

acetyl-Histone H4 = experiment: as above; assay type: cell-based; parameters: key: represented by the symbol ‘+’ which indicates the relative extent of modulation; ++: represented by the symbol ‘+’ which indicates the relative extent of modulation; +++: represented by the symbol ‘+’ which indicates the relative extent of modulation; ++++: represented by the symbol ‘+’ which indicates the relative extent of modulation; conditions: 24 hrs, 0.03-3.0 μM
Experimental: as §1

Caspase-3 = Caspase-3 activity in HT-29 cells; assay type: cell-based; conditions: Homo sapiens, 48 hours
Experimental: Caspase-3 activity was measured in HT-29 cells using Caspase-3 assay kit, (Sigma). HT-29 cells were seeded (10,000 cells/well) in a 96 well plate and incubated overnight. Cells were treated with several concentrations (30, 10, 3, 1, 0.3, 0.1, 0.03, 0.01 μM) of the compounds and incubated for 48 hours and the cells were lysed. Assay was carried out according to the manufacturer's protocol. The fluorescent substrate was added in to the cell lysate and the fluorescence was measured at λexi360 and λemi460.

HCT-15 = experiment: Anti-proliferative activity (GI50); assay type: cell-based; conditions: Homo sapiens
Experimental: (§2) Cells were seeded in a 96-well cell culture plates at a concentration of 10,000 cells per well and incubated at 37° C. in CO2 incubator.
(§3) Twenty-four hours later cells were treated with different concentrations (100, 10, 1, 0.1, and 0.01 μM) of compound dissolved in DMSO and incubated for 48 hours. For To measurement, 24 hours after seeding the cells, 20 μL of 3-(4.5-dimethyl-2- thiazolyl)-2,5-diphenyl-2H-tetrazolium (MTT) solution per well was added to the T0 plate and incubated for 3 hours at 37° C. in a CO2 incubator.
(§4) The plate containing cells and test compounds was treated similarly after 48 hours of incubation. After 3 hours of MTT addition, well contents were aspirated carefully followed by addition of 100 μL DMSO per well. Plates were agitated to ensure dissolution of the formazan crystals in DMSO and absorbance was read at 570 nm (A570). […] From the percentage growths a dose response curve was generated and GI50 values were interpolated from the growth curves.

Calu-6 = experiment: Anti-proliferative activity (GI50); assay type: cell-based; conditions: Homo sapiens
Experimental: as §2, §3, §4

SH-SY-5Y = experiment: Anti-proliferative activity (GI50); assay type: cell-based; conditions: Homo sapiens, SH-SY5Y, read-out: Anti-proliferative activity (GI50) SH-SY-5Y
Experimental: as §2, §3, §4

A431 = experiment: Anti-proliferative activity (GI50); assay type: cell-based; conditions: Homo sapiens
Experimental: as §2, §3, §4

Ca Ski = experiment: Anti-proliferative activity (GI50); assay type: cell-based; conditions: Homo sapiens, read-out: Anti-proliferative activity (GI50) Ca Ski
Experimental: as §2, §3, §4

IMR-32 = experiment: Anti-proliferative activity (GI50); assay type: cell-based; conditions: Homo sapiens
Experimental: as §2, §3, §4

K562 = experiment: Anti-proliferative activity (GI50); assay type: cell-based; conditions: Homo sapiens
Experimental: as §2, §3, §4

RPMI-8226 = experiment: Anti-proliferative activity (GI50); assay type: cell-based; conditions: Homo sapiens
Experimental: as §2, §3, §4

U-87-MG = experiment: Anti-proliferative activity (GI50); assay type: cell-based; conditions: Homo sapiens, read-out: Anti-proliferative activity (GI50) U-87-MG
Experimental: as §2, §3, §4

Hela-S3 = experiment: Anti-proliferative activity (GI50); assay type: cell-based; conditions: Homo sapiens
Experimental: as §2, §3, §4

Colo-205 = experiment: Anti-proliferative activity (GI50); assay type: cell-based; conditions: Homo sapiens
Experimental: as §2, §3, §4

ACHN = experiment: Anti-proliferative activity (GI50); assay type: cell-based; conditions: Homo sapiens, read-out: Anti-proliferative activity (GI50) ACHN
Experimental: as §2, §3, §4

[1] = HCT-15, Table 9, Colon, read-out: Anti-proliferative activity (GI50) HCT-15
[2] = Calu-6, Table 9, Lung, read-out: Anti-proliferative activity (GI50) Calu-6
[3] = A-431, Table 9, Skin, read-out: Anti-proliferative activity (GI50) A431
[4] = IMR-32, Table 9, Brain, read-out: Anti-proliferative activity (GI50) IMR-32
[5] = K562, Table 9, Leukemia, read-out: Anti-proliferative activity (GI50) K562
[6] = RPMI-8226, Table 9, Leukemia, read-out: Anti-proliferative activity (GI50) RPMI-8226
[7] = HeLa S3, Table 9, Cervix, read-out: Anti-proliferative activity (GI50) Hela-S3
[8] = COLO 205, Table 9, Colon, read-out: Anti-proliferative activity (GI50) Colo-205

T1 sequence (Q12809 whole entry): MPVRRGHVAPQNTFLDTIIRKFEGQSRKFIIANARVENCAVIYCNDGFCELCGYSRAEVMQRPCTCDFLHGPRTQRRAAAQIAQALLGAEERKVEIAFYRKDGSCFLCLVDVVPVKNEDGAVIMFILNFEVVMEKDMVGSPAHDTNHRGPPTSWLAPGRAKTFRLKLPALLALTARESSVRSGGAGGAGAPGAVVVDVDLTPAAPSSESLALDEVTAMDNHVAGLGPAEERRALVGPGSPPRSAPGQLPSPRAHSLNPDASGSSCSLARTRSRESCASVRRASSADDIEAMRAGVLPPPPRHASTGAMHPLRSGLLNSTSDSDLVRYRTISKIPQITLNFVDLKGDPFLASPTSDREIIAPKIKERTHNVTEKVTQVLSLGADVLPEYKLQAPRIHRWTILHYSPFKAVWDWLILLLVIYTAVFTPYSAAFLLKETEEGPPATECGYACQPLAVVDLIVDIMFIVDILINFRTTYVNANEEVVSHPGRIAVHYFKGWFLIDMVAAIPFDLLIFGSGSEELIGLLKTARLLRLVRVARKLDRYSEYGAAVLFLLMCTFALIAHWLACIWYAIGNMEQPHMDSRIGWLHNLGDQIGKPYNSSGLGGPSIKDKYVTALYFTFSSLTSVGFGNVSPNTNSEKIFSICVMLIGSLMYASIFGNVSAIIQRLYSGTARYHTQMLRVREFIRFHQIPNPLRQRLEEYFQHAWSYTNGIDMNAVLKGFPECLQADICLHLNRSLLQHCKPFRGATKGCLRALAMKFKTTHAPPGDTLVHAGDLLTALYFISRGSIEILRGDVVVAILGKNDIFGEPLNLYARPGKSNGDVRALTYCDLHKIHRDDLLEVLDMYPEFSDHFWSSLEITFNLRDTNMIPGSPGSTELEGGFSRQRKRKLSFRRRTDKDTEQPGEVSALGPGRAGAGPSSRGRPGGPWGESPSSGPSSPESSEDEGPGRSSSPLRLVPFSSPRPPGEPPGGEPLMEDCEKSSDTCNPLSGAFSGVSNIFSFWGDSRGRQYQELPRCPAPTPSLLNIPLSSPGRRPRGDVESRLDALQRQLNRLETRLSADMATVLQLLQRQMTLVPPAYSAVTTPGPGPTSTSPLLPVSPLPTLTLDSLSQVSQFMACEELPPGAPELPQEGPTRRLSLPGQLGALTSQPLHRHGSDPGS

SMILES	IC50 (hERG)	PARP cleavage (cleaved PARP)	Target modulation: H3 acetylation (acetyl-Histone H3)	Target modulation: H4 acetylation (acetyl-Histone H4)	EC50 (Caspase-3)	GI50 (HCT-15; [1])	GI50 (Calu-6; [2])	GI50 (SH-SY-5Y; Table 9, Brain)	GI50 (A431; [3])	GI50 (Ca Ski; Table 9, Cervix)	GI50 (IMR-32; [4])	GI50 (K562; [5])	GI50 (RPMI-8226; [6])	GI50 (U-87-MG; Table 9, Brain)	GI50 (Hela-S3; [7])	GI50 (Colo-205; [8])	GI50 (ACHN; Table 9, Renal)	also measured
O=C(NO)c1ccc(Cn2cc(-c3ccc(CN4CCOCC4)cc3)nn2)cc1 [Example 9, N-Hydroxy-4-[4-(4-morpholin-4-ylmethyl-phenyl)-[1,2,3]triazol-1-ylmethyl]-benzamide]	> 100 µM	+++	++++	++++	1500 nM	4100 ± 3200 nM	1400 ± 310 nM	200 ± 60 nM	1200 ± 533 nM	1200 ± 220 nM	900 ± 201 nM	300 ± 74 nM	500 ± 430 nM	2700 ± 740 nM	600 ± 160 nM	300 ± 71 nM	700 ± 110 nM	
O=C(/C=C/c1ccc(Cn2cc(-c3ccc(CN4CCCC4)cc3)nn2)cc1)NO [Example 16, N-Hydroxy-3-{4-[4-(4-pyrrolidin-1-ylmethyl-phenyl)-[1,2,3]triazol-1-ylmethyl]-phenyl}-acrylamide]	> 100 µM	++++	++	++++	6590 nM	9800 ± 4300 nM	410 ± 160 nM	340 ± 33 nM	280 ± 50 nM	420 ± 150 nM	250 ± 70 nM	190 ± 50 nM	150 ± 50 nM	760 ± 660 nM	230 ± 120 nM	310 ± 60 nM	90 ± 20 nM	
O=C(CCCCCCC(=O)Nc1ccccc1)NO [SAHA, Suberoylanilide Hydroxamic Acid, reference compound]		++	+++	+++														GI50 (HCT-15; HCT-15, read-out: Anti-proliferative activity (GI50) HCT-15): 5200 ± 1900 nM; GI50 (Calu-6; Calu-6, read-out: Anti-proliferative activity (GI50) Calu-6): 3500 ± 500 nM; GI50 (SH-SY-5Y): 800 ± 400 nM; GI50 (A431; A-431, read-out: Anti-proliferative activity (GI50) A431): 1900 ± 1000 nM; GI50 (Ca Ski): 6000 ± 5300 nM; GI50 (IMR-32; IMR-32, read-out: Anti-proliferative activity (GI50) IMR-32): 1800 ± 200 nM; GI50 (K562; K562, read-out: Anti-proliferative activity (GI50) K562): 2200 ± 700 nM; GI50 (RPMI-8226; RPMI-8226, read-out: Anti-proliferative activity (GI50) RPMI-8226): 2200 ± 2300 nM; GI50 (U-87-MG): 6700 ± 1100 nM; GI50 (Hela-S3; HeLa S3, read-out: Anti-proliferative activity (GI50) Hela-S3): 2900 ± 500 nM; GI50 (Colo-205; COLO 205, read-out: Anti-proliferative activity (GI50) Colo-205): 1600 ± 100 nM; GI50 (ACHN): 1600 ± 500 nM
CN(C)Cc1ccc(-c2cn(Cc3ccc(/C=C/C(=O)NO)cc3)nn2)cc1 [Example 21]	42.6 µM	++++	+++	++++	4090 nM	1800 ± 1140 nM	400 ± 120 nM	100 nM	400 ± 80 nM	1100 ± 730 nM	200 ± 40 nM	200 ± 40 nM	300 ± 160 nM	1000 ± 330 nM	200 ± 80 nM	400 ± 40 nM	100 ± 40 nM	
O=C(/C=C/c1cccc(Cn2cc(-c3ccc(CN4CCOCC4)cc3)nn2)c1)NO [Example 25, N-Hydroxy-3-{3-[4-(4-morpholin-4-ylmethyl-phenyl)-[1,2,3]triazol-1-ylmethyl]-phenyl}-acrylamide hydrochloride]	> 100 µM	+++	++++	++++	3620 nM	1700 ± 890 nM	600 ± 180 nM	200 ± 30 nM	200 ± 30 nM	400 ± 280 nM	200 ± 20 nM	200 ± 80 nM	200 ± 250 nM	1100 ± 730 nM	200 ± 20 nM	200 ± 30 nM	200 ± 80 nM	
O=C(NO)c1ccc(Cn2cc(-c3ccc(CN4CCCC4)cc3)nn2)cc1 [Example 8, N-Hydroxy-4-[4-(4-pyrrolidin-1-ylmethyl-phenyl)-[1,2,3]triazol-1-ylmethyl]-benzamide]	19.9 µM	+++	+++	++++	1360 nM	19300 ± 3800 nM	600 ± 330 nM	200 ± 80 nM	500 ± 130 nM	1100 ± 490 nM	400 ± 90 nM	300 ± 60 nM	400 ± 300 nM	500 ± 90 nM	400 ± 90 nM	300 ± 50 nM	300 ± 140 nM	
